Laboratory results from patent publication US20040242886A1, “Monocyclic diazodioxide based Bcl-2 protein antagonists related applications” (priority 2003, published 2004).
Where two headings read alike, the source gives them in different places.

Experiments:
[1] = system: A549 human lung cells expressing low Bcl-2 and high Bcl-XL levels; assay: Acute cytotoxicity (apoptotic activity), Alamar Blue viability, A549 cells; type: cell-based
Description: (§1) The biological activity of the compounds provided herein were assessed in cellular system by the method similar to the one described by Amundson et al. (Amundson, S. A. et al, Cancer Research 2000, 60, 6101-6110), which is incorporated herein by reference in its entirety. The compounds were tested for acute cytotoxicity (apoptotic activity) using two human cancer cell lines expressing high levels of either Bcl-2 or BCl-XL. HL60, human leukemic cells expressing high Bcl-2 and low BCl-XL levels, and A549 human lung cells expressing low Bcl-2 and high BCl-XL levels, were incubated with the compounds at concentrations between 0.5 and 1000 μg/mL for 4 hours at 37° C., 5% CO2. The number of viable cells were measured by mitochondrial transformation of Alamar Blue to a fluorescent dye. LC50 values for each test compound and controls are provided in the individual examples that follow.
(§2) The compounds provided herein were tested for acute cytoxicity (apoptotic activity) using two human cancer cell lines expressing high levels of either Bcl-2 or BCl-XL. HL-60 cells expressing high Bcl-2 and low Bcl-XL levels, and A549 human lung cells expressing low Bcl-2 and high Bcl-XL levels were incubated with the compounds provided herein at concentrations between 0.5 and 1000 μg/mL for 4 hours at 37° C., 5% CO2. The number of viable cells were measured by mitochondrial transformation of Alamar Blue to a fluorescent dye. As negative controls, the compounds were tested against the cell lines with low levels of Bcl-2 expression, viz., MDA-453 cells. LC50 values for each compound and controls were determined.

[2] = system: HL60, human leukemic cells expressing high Bcl-2 and low Bcl-XL levels; assay: Acute cytotoxicity (apoptotic activity), Alamar Blue viability, HL-60 cells; type: cell-based
Description: as §1, §2

[3] = system: cell; conditions: cited from earlier work
[4] = Homo sapiens, A549; 4 hours at 37° C.; read-out: LC50 value in A549 cell lines
[5] = Homo sapiens, HL-60; 4 hours at 37° C.; read-out: LC50 value in HL-60 cell lines
[6] = Homo sapiens, A549, 4 h; read-out: LC 50 (μM) A549
[7] = Homo sapiens, HL-60, 4 h; read-out: LC 50 (μM) HL-60

SMILES | CC50 [1, 6] [µM] | CC50 [2, 7] [µM] | other results
O=S(=O)(c1ccccc1)c1ccc(S(=O)(=O)c2ccccc2)[n+]([O-])n1 [Example 1, 3,6-bis(benzenesulfonyl)pyridazine-1-oxide] |  |  | CC50 [1, 4]: 268 µM; CC50 [2, 5]: 20.5 µM
[O-][n+]1nc(Oc2ccccc2)ccc1Oc1ccccc1 [Example 2, 3,6-diphenoxvpyridazine-1-oxide] |  |  | CC50 ([1]; 4 hours at 37° C.; read-out: LC50 value in A549 cell lines): > 500 µM; CC50 ([2]; 4 hours at 37° C.; read-out: LC50 value in HL-60 cell lines): > 500 µM
O=S(=O)(c1ccc(S(=O)(=O)C2CCCCC2)[n+]([O-])n1)C1CCCCC1 [Example 3, 3,6-bis-cyclohexanesulfonyl-pyridazine-1-oxide] |  |  | CC50 [1, 4]: 192 µM; CC50 [2, 5]: 32.3 µM
O=S(=O)(c1ccc(Cl)n[n+]1[O-])C1CCCCC1 [Example 4, 3-chloro-6-cyclohexanesulfonyl-pyridazine-1-oxide] |  |  | CC50 [1, 4]: 188 µM; CC50 [2, 5]: 20.2 µM
O=S(=O)(c1ccccc1)c1ccc(S(=O)(=O)C2CCCCC2)[n+]([O-])n1 [Example 5, 3-benzenesulfonyl-6-cyclohexanesulfonyl-pyridazine-1-oxide] |  |  | CC50 [1, 4]: 279 µM; CC50 [2, 5]: 32.9 µM
Cc1cc2c(C(C)C)c(O)c(O)c(C=O)c2c(O)c1-c1c(C)cc2c(C(C)C)c(O)c(O)c(C=O)c2c1O [compound 1] |  |  | CC50 [3]: 1.5 µM
Clc1ccc(Cl)nn1 [compound 1] | > 200 | > 200 | 
[O-][n+]1nc(Cl)ccc1Cl [compound 2] | > 200 | < 50 | 
COc1ccc(Cl)[n+]([O-])n1 [compound 3] | > 200 | > 200 | 
[O-][n+]1nc(Oc2ccccc2)ccc1Oc1ccccc1 [compound 4] | > 200 | > 200 | 
[O-][n+]1nc(Sc2ccccc2)ccc1Sc1ccccc1 [compound 5] |  | > 200 | 
[O-][n+]1nc(Sc2ccccn2)ccc1Sc1ccccn1 [compound 7, reference compound] | > 200 | > 200 | 
O=[N+]([O-])c1ccc(Sc2ccc(Sc3ccc([N+](=O)[O-])cc3)nn2)cc1 [compound 9] |  |  | CC50 ([1]; Homo sapiens, A549, 4 h, read-out: LC 50 (μM) A549): > 200 µM; CC50 ([2]; Homo sapiens, HL-60, 4 h, read-out: LC 50 (μM) HL-60): > 200 µM
COc1ccc(Sc2ccc(Sc3ccc(OC)cc3)[n+]([O-])n2)cc1 [compound 10] | > 200 | > 200 | 
CCS(=O)(=O)c1ccc(S(=O)(=O)CC)[n+]([O-])n1 [compound 12] | 50 to 200 | 50 to 200 | 
O=S(=O)(c1ccc(S(=O)(=O)C2CCCC2)[n+]([O-])n1)C1CCCC1 [compound 13] | > 200 | < 50 | 
O=S(=O)(Cc1ccccc1)c1ccc(S(=O)(=O)Cc2ccccc2)[n+]([O-])n1 [compound 14] | > 200 | > 200 | 
Cc1cc(Cl)[n+]([O-])nc1Cl [compound 17] | > 200 | > 200 | 
Cc1cccc(S(=O)(=O)c2ccc(S(=O)(=O)c3cccc(C)c3)[n+]([O-])n2)c1 [compound 18] | > 200 | > 200 | 
Cc1ccccc1S(=O)(=O)c1ccc(S(=O)(=O)c2ccccc2C)[n+]([O-])n1 [compound 19] | > 200 | 50 to 200 | 

SMILES | CC50 [1, 6] [µM] | CC50 [2, 7] [µM] | other results
O=S(=O)(c1ccc(S(=O)(=O)C2CCCCC2)[n+]([O-])n1)C1CCCCC1 [compound 20] | > 200 | < 50 | 
COc1cccc(S(=O)(=O)c2ccc(S(=O)(=O)c3cccc(OC)c3)[n+]([O-])n2)c1 [compound 21] | > 200 | > 200 | 
COc1ccccc1S(=O)(=O)c1ccc(S(=O)(=O)c2ccccc2OC)[n+]([O-])n1 [compound 22] | > 200 | < 50 | 
Cc1cc(Cl)n[n+]([O-])c1Cl [compound 23] | > 200 | > 200 | 
CCCCS(=O)(=O)c1ccc(S(=O)(=O)CCCC)[n+]([O-])n1 [compound 24] | > 200 | 50 to 200 | 
CC(C)(C)S(=O)(=O)c1ccc(S(=O)(=O)C(C)(C)C)[n+]([O-])n1 [compound 25] | > 200 | 50 to 200 | 
[O-][n+]1nc(Cl)ccc1SC1CCCCC1 [compound 26] | > 200 | > 200 | 
O=S(=O)(c1ccc(Cl)n[n+]1[O-])C1CCCCC1 [compound 28] | > 200 | < 50 | 
[O-][n+]1ccccc1Cl [compound 29] | > 200 | > 200 | 
O=S(=O)(c1ccc(Sc2ccccc2)n[n+]1[O-])C1CCCCC1 [compound 30] | > 200 | > 200 | 
CCOc1ccc(S(=O)(=O)C2CCCCC2)[n+]([O-])n1 [compound 31] | > 200 | > 200 | 
[O-][n+]1nc(Cl)c2ccccc2c1Cl [compound 33] | 50 to 200 | 50 to 200 | 
O=S(=O)(c1ccccc1)c1ccc(S(=O)(=O)C2CCCCC2)[n+]([O-])n1 [compound 34] | > 200 | < 50 | 
[O-][n+]1cc(Cl)ccc1Cl [compound 35] | > 200 | > 200 | 
CCS(=O)(=O)c1ccc(S(=O)(=O)C2CCCCC2)[n+]([O-])n1 [compound 36] | 50 to 200 | < 50 | 
O=S(=O)(c1ccc(Cl)c[n+]1[O-])C1CCCCC1 [compound 37] | > 200 | > 200 | 
CCSc1ccc(S(=O)(=O)C2CCCCC2)n[n+]1[O-] [compound 38] | > 200 | > 200 | 
COc1ccccc1S(=O)(=O)c1ccc(S(=O)(=O)C2CCCCC2)[n+]([O-])n1 [compound 39] | 50 to 200 | < 50 | 
O=S(=O)(c1ccccc1)c1ccc(Cl)n[n+]1[O-] [compound 40] | > 200 | < 50 | 
O=S(=O)(c1ccccc1)c1ccc(S(=O)(=O)C2CCCCC2)n[n+]1[O-] [compound 41] | > 200 | < 50 | 

SMILES | CC50 [1, 6] [µM] | CC50 [2, 7] [µM] | other results
O=S(=O)(c1ccc(S(=O)(=O)C2CCCCC2)[n+]([O-])n1)c1ccccc1Cl [compound 42] | 50 to 200 | < 50 | 
COC(=O)c1ccccc1S(=O)(=O)c1ccc(S(=O)(=O)C2CCCCC2)[n+]([O-])n1 [compound 43] | > 200 | < 50 | 
O=S(=O)(c1ccccc1)c1n[n+]([O-])c(O)c2ccccc12 [compound 44] | > 200 | > 200 | 
CCS(=O)(=O)c1n[n+]([O-])c(OC(=O)c2cccc(Cl)c2)c2ccccc12 [compound 45] | > 200 | > 200 | 
O=C(O)c1ccccc1Sc1ccc(SC2CCCCC2)[n+]([O-])n1 [compound 46] | > 200 | > 200 | 
O=S(=O)(CCO)c1ccc(S(=O)(=O)C2CCCCC2)[n+]([O-])n1 [compound 47] | > 200 | > 200 | 
COC(=O)CCS(=O)(=O)c1ccc(S(=O)(=O)C2CCCCC2)[n+]([O-])n1 [compound 48] | > 200 | < 50 | 
Cc1ccc(S(=O)(=O)c2ccc(S(=O)(=O)C3CCCCC3)[n+]([O-])n2)cc1 [compound 49] | > 200 | 50 to 200 | 
O=S(=O)(c1ccc(O)cc1)c1ccc(S(=O)(=O)C2CCCCC2)[n+]([O-])n1 [compound 50] | > 200 | 50 to 200 | 
CC(=O)Oc1ccc(S(=O)(=O)c2ccc(S(=O)(=O)C3CCCCC3)[n+]([O-])n2)cc1 [compound 51] | > 200 | 50 to 200 | 
O=S(=O)(c1cc[n+]([O-])cc1)c1ccc(S(=O)(=O)C2CCCCC2)[n+]([O-])n1 [compound 53] | > 200 | 50 to 200 | 
Nc1ccc(S(=O)(=O)c2ccc(S(=O)(=O)C3CCCCC3)[n+]([O-])n2)cc1 [compound 55] | > 200 | < 50 | 
CC(=O)NCCS(=O)(=O)c1ccc(S(=O)(=O)C2CCCCC2)[n+]([O-])n1 [compound 56] | > 200 | > 200 | 
O=C(O)c1ccc(S(=O)(=O)c2ccc(S(=O)(=O)C3CCCCC3)[n+]([O-])n2)cc1 [compound 57] | > 200 | > 200 | 
CS(=O)(=O)Nc1ccc(S(=O)(=O)c2ccc(S(=O)(=O)C3CCCCC3)[n+]([O-])n2)cc1 [compound 58] | > 200 | > 200 | 
COC(=O)c1ccc(S(=O)(=O)c2ccc(S(=O)(=O)C3CCCCC3)[n+]([O-])n2)cc1 [compound 59] | > 200 | < 50 | 
O=S(=O)(c1ccncc1)c1ccc(S(=O)(=O)C2CCCCC2)[n+]([O-])n1 [compound 60] | > 200 | 50 to 200 | 
O=S(=O)(c1ccc(-c2ccccc2)n[n+]1[O-])C1CCCCC1 [compound 61] | > 200 | > 200 | 
[O-][n+]1nc(Sc2ccccc2)ccc1Sc1ccccc1 [pyridazine, 3,6-bis(phenylthio)-, 1-oxide] |  |  | CC50 [2, 5]: 58.9 µM
